Where only a bound is given, the exact number is not on record here.

Sequence of IGF-1R (P08069 31-1367): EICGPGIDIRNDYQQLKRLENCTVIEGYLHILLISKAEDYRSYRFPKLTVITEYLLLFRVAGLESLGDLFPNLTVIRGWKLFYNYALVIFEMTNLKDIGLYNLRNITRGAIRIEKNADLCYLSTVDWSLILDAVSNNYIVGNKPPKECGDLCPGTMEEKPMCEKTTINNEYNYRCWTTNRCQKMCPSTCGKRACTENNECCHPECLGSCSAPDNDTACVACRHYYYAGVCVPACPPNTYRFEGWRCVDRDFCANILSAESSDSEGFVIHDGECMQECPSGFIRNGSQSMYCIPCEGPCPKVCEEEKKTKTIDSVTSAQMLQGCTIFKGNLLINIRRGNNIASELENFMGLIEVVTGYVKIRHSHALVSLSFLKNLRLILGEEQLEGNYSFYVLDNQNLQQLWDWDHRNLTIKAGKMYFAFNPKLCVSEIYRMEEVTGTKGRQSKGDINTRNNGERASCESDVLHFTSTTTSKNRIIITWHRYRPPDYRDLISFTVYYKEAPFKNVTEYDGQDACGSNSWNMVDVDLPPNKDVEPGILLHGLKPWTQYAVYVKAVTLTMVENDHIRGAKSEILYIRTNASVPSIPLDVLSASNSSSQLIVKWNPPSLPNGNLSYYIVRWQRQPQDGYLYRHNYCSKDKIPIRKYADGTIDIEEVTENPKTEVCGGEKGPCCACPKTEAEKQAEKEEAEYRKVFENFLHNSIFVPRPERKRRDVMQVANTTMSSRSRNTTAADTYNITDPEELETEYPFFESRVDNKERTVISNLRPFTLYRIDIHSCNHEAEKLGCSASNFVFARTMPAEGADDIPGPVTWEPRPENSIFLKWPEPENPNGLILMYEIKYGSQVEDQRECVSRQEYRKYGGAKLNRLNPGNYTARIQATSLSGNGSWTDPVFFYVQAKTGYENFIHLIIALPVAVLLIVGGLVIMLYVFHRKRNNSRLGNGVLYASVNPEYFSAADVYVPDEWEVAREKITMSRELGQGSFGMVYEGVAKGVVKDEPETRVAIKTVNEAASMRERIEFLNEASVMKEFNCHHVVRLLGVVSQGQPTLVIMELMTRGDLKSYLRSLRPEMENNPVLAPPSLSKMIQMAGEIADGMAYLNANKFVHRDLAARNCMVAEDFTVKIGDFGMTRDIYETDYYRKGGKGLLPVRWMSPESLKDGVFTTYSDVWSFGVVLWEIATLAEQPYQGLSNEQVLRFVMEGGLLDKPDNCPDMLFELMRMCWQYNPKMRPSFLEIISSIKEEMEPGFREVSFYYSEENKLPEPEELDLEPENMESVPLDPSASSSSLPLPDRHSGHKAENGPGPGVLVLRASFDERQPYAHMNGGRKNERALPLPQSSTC

The experiment concerns the target IGF-1R (Homo sapiens (Human), UniProt P08069). Nature of the experiment: Example B-1: IGF-1R Assay (PC3 cells, IGF1 stimulation, AlphaLISA). The format is cell-based. Conditions: 200 ng/mL IGF1 stimulation, read-out: Biological Activity against IGF-1R IC50. In outline: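 PC3 cells were serum-starved 2 h, treated with serially diluted compounds for 2 h, then stimulated with IGF1 (200 ng/mL final) for 30 min. Lysates were read by AlphaLISA; % inhibition was calculated relative to vehicle and EC80 controls, with IC50 values binned into ranges.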
On the technique in general: In Alpha technology, singlet oxygen from a donor bead excites a nearby acceptor bead.
Regarding `COc1cc(Nc2nccc(Nc3cnc4c(c3)CCCC4(C)C)n2)ccc1OCCCN1CCCCC1` [Compound 73, 4-(8,8-dimethyl-5,6,7,8-tetrahydro-3-quinolylamino)-2-[3-methoxy-4-(3-piperidinopropoxy)phenylamino] pyrimidine], the IC50 (as a rule, the concentration at which inhibition is half-maximal) is no more than 500 nM.
As for `COc1cc(Nc2nccc(Nc3cc(Cl)c4ncccc4c3)n2)ccc1OCCCN1CCCCC1` [Compound 457, 4-(8-chloro-6-quinolylamino)-2-[3-methoxy-4-(3-piperidinopropoxy)phenylamino] pyrimidine], the figure is no more than 500 nM; as for `COc1cc(Nc2nccc(Nc3cnc4cc(F)c(F)cc4c3)n2)cnc1OC1CCNCC1(F)F` (centres unmarked) [Compound 263, 2-[6-(3,3-difluoro-4-piperidyloxy)-5-methoxy-3-pyridylamino]-4-(6,7-difluoro-3-quinolylamino)pyrimidine], no more than 500 nM; as for `COc1cc(Nc2nccc(Nc3cnc4c(c3)CCCO4)n2)ccc1OCCCN1CCCCC1` [Compound 375, 4-(3,4-dihydro-2H-1-oxa-8-azanaphth-6-ylamino)-2-[3-methoxy-4-(3-piperidinopropoxy)phenylamino]pyrimidine], no more than 500 nM.
The result for `Clc1ccc2cc(Nc3ccnc(Nc4ccc(OCCCN5CCOCC5)cc4)n3)cnc2c1` [Compound 410, 4-(7-chloro-3-quinolylamino)-2-[p-(3-morpholinopropoxy)phenylamino]pyrimidine] reads 2000 to 10000 nM.
As for `COc1cc(Nc2nccc(Nc3cnc4cc(F)c(F)cc4c3)n2)ccc1N1CCC(C)(O)CC1` [Compound 155, 1-(4-((4-((6,7-difluoroquinolin-3-yl)amino)pyrimidin-2-yl)amino)-2-methoxyphenyl)-4-methylpiperidin-4-ol], the figure is no more than 500 nM; as for `COc1cc(Nc2nccc(Nc3cc4cccc(Cl)c4[nH]c3=O)n2)ccc1O[C@H]1C[C@H](N(C)C)C1` [Compound 112, 8-chloro-3-(2-{3-methoxy-4-[(1r,3r)-3-(dimethylamino)cyclobutoxy]phenyl-amino}-4-pyrimidinylamino)-1,2-dihydro-2-quinolinone], no more than 500 nM; as for `COc1cc(Nc2nccc(Nc3cnc4c(c3)CCCO4)n2)ccc1O[C@H]1C[C@@H](N(C)C)C1` [Compound 365, 4-(3,4-dihydro-2H-1-oxa-8-azanaphth-6-ylamino)-2-{3-methoxy-4-[(1s,3s)-3-(dimethylamino)cyclobutoxy]phenylamino}pyrimidine], no more than 500 nM.
Turning to `COc1cc(Nc2nccc(Nc3cnc4ccc(Cl)cc4c3)n2)ccc1O[C@H]1C[C@@H](N(C)C)C1` [Compound 343, 4-(6-chloro-3-quinolylamino)-2-{3-methoxy-4-[(1s,3s)-3-(dimethylamino)cyclobutoxy]phenylamino}pyrimidine], the 50% inhibitory concentration (IC50) is no more than 500 nM.
As for `COc1cc(Nc2nccc(Nc3cc4cccc(F)c4[nH]c3=O)n2)cnc1N1CCN(C)C(C)(C)C1` [Compound 229, 3-{2-[6-(3,3-dimethyl-4-methyl-1-piperazinyl)-5-methoxy-3-pyridylamino]-4-pyrimidinylamino}-8-fluoro-1,2-dihydro-2-quinolinone], the figure is no more than 500 nM.
The result for `COc1cc(Nc2nccc(Nc3cnc4ccccc4c3)n2)ccc1O[C@H]1CC[C@@H](N2CCOCC2)CC1` [Compound 18, 2-{3-methoxy-4-[(1s,4s)-4-morpholinocyclohexyloxy]phenylamino}-4-(3-quinolylamino)pyrimidine] reads no more than 500 nM; that for `COc1nc(N2CCC(C)(O)CC2)ccc1Nc1nccc(Nc2cc3cccc(F)c3[nH]c2=O)n1` [Compound 231, 8-fluoro-3-{2-[6-(4-hydroxy-4-methyl-1-piperidyl)-2-methoxy-3-pyridylamino]-4-pyrimidinylamino}-1,2-dihydro-2-quinolinone], no more than 500 nM.
Regarding `COc1cc(Nc2nccc(Nc3cnc4c(c3)OCC(C)O4)n2)ccc1OCCCN1CCCCC1` (centres unmarked) [Compound 101, 2-[3-methoxy-4-(3-piperidinopropoxy)phenylamino]-4-(3-methyl-2,3-dihydro-1,4-dioxa-5-aza-7-naphthylamino)pyrimidine], the IC50 is no more than 500 nM.
As for `COc1cc(Nc2nccc(Nc3ccc4c(O)nccc4c3)n2)ccc1O[C@H]1C[C@@H](N(C)C)C1` [Compound 266, 6-(2-{3-methoxy-4-[(1s,3s)-3-(dimethylamino)cyclobutoxy]phenylamino}-4-pyrimidinylamino)-1-isoquinolinol], the figure is no more than 500 nM; as for `CN1[C@@H]2COC[C@H]1C[C@@H](Oc1ccc(Nc3nccc(Nc4cnc5ccccc5c4)n3)cc1)C2` [Compound 29, 2-(p-{(1R,5S,7r)-9-methyl-3-oxa-9-azabicyclo[3.3.1]non-7-yloxy}phenylamino)-4-(3-quinolylamino)pyrimidine], no more than 500 nM; as for `COc1cc(Nc2nccc(Nc3cnc4ccc(Cl)cc4c3)n2)ccc1N1CCOCC1` [Compound 462, 4-(6-chloro-3-quinolylamino)-2-(3-methoxy-4-morpholinophenylamino) pyrimidine], no more than 500 nM.
As to `N#Cc1ccc2ncc(Nc3ccnc(Nc4ccc(OCCCN5CCOCC5)cc4)n3)cc2c1` [Compound 396, 3-{2-[p-(3-morpholinopropoxy)phenylamino]-4-pyrimidinylamino}-6-quinolinecarbonitrile], the concentration for half-maximal inhibition (IC50) fell in the range of 2000 to 10000 nM.
The result for `COc1cc(Nc2nccc(Nc3cnc4c(Cl)cccc4c3)n2)ccc1O[C@H]1CC[C@@H](N(C)C)CC1` [Compound 332, 4-(8-chloro-3-quinolylamino)-2-{3-methoxy-4-[(1s,4s)-4-(dimethylamino)cyclohexyloxy]phenylamino}pyrimidine] reads no more than 500 nM; that for `COc1cc(Nc2nccc(Nc3cnc4c(F)cccc4c3)n2)cnc1O[C@H]1C[C@@H](N(C)C)C1` [Compound 270, 4-(8-fluoro-3-quinolylamino)-2-{5-methoxy-6-[(1s,3s)-3-(dimethylamino)cyclobutoxy]-3-pyridylamino}pyrimidine], no more than 500 nM; that for `COc1cc(Nc2nccc(Nc3cnc4c(c3)CC3(CC4)OCCO3)n2)ccc1OCCCN1CCCCC1` [Compound 303, 4-(7′,8′-dihydro-5′H-spiro[1,3-dioxolane-2,6′-quinolin]-3′-ylamino)-2-[3-methoxy-4-(3-piperidinopropoxy)phenylamino] pyrimidine], no more than 500 nM.
`COc1cc(Nc2nccc(Nc3cnc4c(F)c(F)ccc4c3)n2)ccc1O[C@H]1C[C@@H](N(C)C)C1` [Compound 298, 4-(7,8-difluoro-3-quinolylamino)-2-{3-methoxy-4-[(1s,3s)-3-(dimethylamino)cyclobutoxy]phenylamino}pyrimidine]: the IC50 is no more than 500 nM.
As for `c1cc(Nc2cnc3cc(C4CC4)ccc3c2)nc(Nc2ccc(OCCCN3CCOCC3)cc2)n1` [Compound 405, 4-(7-cyclopropyl-3-quinolylamino)-2-[p-(3-morpholinopropoxy)phenylamino]pyrimidine], the IC50 lay in the range of 2000 to 10000 nM.
As for `COc1cc(Nc2nccc(Nc3cnc4c(c3)CC3(CC4)OCCO3)n2)ccc1O[C@H]1C[C@@H](N(C)C)C1` [Compound 322, 4-(7′,8′-dihydro-5′H-spiro[1,3-dioxolane-2,6′-quinolin]-3′-ylamino)-2-{3-methoxy-4-[(1s,3s)-3-(dimethylamino)cyclobutoxy]phenylamino}pyrimidine], the figure is no more than 500 nM; as for `CN(C)[C@H]1C[C@H](Oc2ccc(Nc3nccc(Nc4cnc5ccccc5c4)n3)cc2)C1` [Compound 27, 4-(3-quinolylamino)-2-{p-[(1r,3r)-3-(dimethylamino)cyclobutoxy]phenylamino}pyrimidine], no more than 500 nM.
Regarding `COc1cc(Nc2nccc(Nc3cnc4ccc(Br)cc4c3)n2)ccc1O[C@H]1CC[C@@H](N(C)C)CC1` [Compound 33, 4-(6-bromo-3-quinolylamino)-2-{3-methoxy-4-[(1s,4s)-4-(dimethylamino)cyclohexyloxy]phenylamino}pyrimidine], the concentration for half-maximal inhibition (IC50) was no more than 500 nM.
With `COc1cc(Nc2nccc(Nc3cnc4ccc(C(F)F)cc4c3)n2)cnc1O[C@H]1C[C@@H](N(C)C)C1` [Compound 163, 4-[6-(difluoromethyl)-3-quinolylamino]-2-{5-methoxy-6-[(1s,3s)-3-(dimethylamino)cyclobutoxy]-3-pyridylamino}pyrimidine], the half-inhibitory concentration (IC50) was no more than 500 nM.
The result for `COc1ccc2cc(Nc3ccnc(Nc4ccc(O[C@H]5C[C@H](N6CCS(=O)(=O)CC6)C5)cc4)n3)cnc2c1` [Compound 353] reads 2000 to 10000 nM.
As for `COc1cc(Nc2nccc(Nc3cnc4[nH]c(C)cc4c3)n2)ccc1O[C@H]1C[C@@H](N(C)C)C1` [Compound 283, 2-{3-methoxy-4-[(1s,3s)-3-(dimethylamino)cyclobutoxy]phenylamino}-4-(2-methyl-1H-1,7-diazainden-5-ylamino)pyrimidine], the figure is no more than 500 nM.
The result for `FC(F)(F)Oc1cccc2cc(Nc3ccnc(Nc4ccc(OCCCN5CCOCC5)cc4)n3)cnc12` [Compound 404, 2-[p-(3-morpholinopropoxy)phenylamino]-4-(8-trifluoromethoxy-3-quinolylamino)pyrimidine] reads 2000 to 10000 nM; that for `COc1cc(Nc2nccc(Nc3cnc4c(c3)CCOC4)n2)ccc1OCCCN1CCCCC1` [Compound 54, 4-(6,8-dihydro-5H-7-oxa-1-azanaphth-3-ylamino)-2-[3-methoxy-4-(3-piperidinopropoxy)phenylamino] pyrimidine], no more than 500 nM.
As to `COc1cc(Nc2nccc(Nc3cnc4[nH]cc(Br)c4c3)n2)ccc1O[C@H]1C[C@@H](N(C)C)C1` [Compound 203, 4-(3-bromo-1H-1,7-diazainden-5-ylamino)-2-{3-methoxy-4-[(1s,3s)-3-(dimethylamino)cyclobutoxy]phenylamino}pyrimidine], the IC50 was no more than 500 nM.
The result for `COc1cc(Nc2nccc(Nc3cnc4cnc(Cl)cc4c3)n2)ccc1O[C@H]1C[C@@H](N(C)C)C1` [Compound 87, 4-(6-chloro-1,7-diaza-3-naphthylamino)-2-{3-methoxy-4-[(1s,3s)-3-(dimethylamino)cyclobutoxy]phenylamino}pyrimidine] reads no more than 500 nM.

The record behind these values is patent US20250171431A1, “HETEROCYCLIC INHIBITORS OF IGF-1R FOR TREATMENT OF DISEASE” (HORIZON THERAPEUTICS IRELAND DAC, priority 2023, published 2025).
